According to patent publication US20220046923A1, “HERBICIDAL CINNOLINIUM COMPOUNDS” (SYNGENTA CROP PROTECTION AG, priority 2018, published 2022):

What was measured:
Assay in all cases: Post-emergence efficacy, glasshouse spray test
Assay type in all cases: in vivo
Lolium perenne (LOLPE) = conditions: evaluated after 13 days; for pest or weed control at 1000 g/ha / Control of weed species LOLPE after post-emergence application (100=total damage to plant; 0=no damage to plant): application rate 1000 g/Ha
Procedure, shortened: (§1)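 Seeds were sown in pots of standard soil and grown for 14 days under controlled glasshouse conditions. Seedlings were sprayed with the compound emulsified via acetone and IF50 and diluted in sodium lauryl ether sulphate (0.25% or 1%) with 1% ammonium sulphate. They were kept at 24/16 °C with 14 h light and 65% humidity and rated for damage on a 0–100 scale after 13 days.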

Setaria faberi (SETFA) = conditions: evaluated after 13 days; for pest or weed control at 1000 g/ha / Control of weed species SETFA after post-emergence application (100=total damage to plant; 0=no damage to plant): application rate 1000 g/Ha
Procedure, shortened: as §1

[1] = tested on: Chenopodium album (CHEAL); conditions: evaluated after 13 days; for pest or weed control at 1000 g/ha / Control of weed species CHEAL after post-emergence application (100=total damage to plant; 0=no damage to plant): application rate 1000 g/Ha
Procedure, shortened: as §1

Eleusine indica (ELEIN) = conditions: evaluated after 13 days; for pest or weed control at 1000 g/ha / Control of weed species ELEIN after post-emergence application (100=total damage to plant; 0=no damage to plant): application rate 1000 g/Ha
Procedure, shortened: as §1

[2] = tested on: Digitaria sanguinalis (DIGSA); conditions: evaluated after 13 days; for pest or weed control at 1000 g/ha / Control of weed species DIGSA after post-emergence application (100=total damage to plant; 0=no damage to plant): application rate 1000 g/Ha
Procedure, shortened: as §1

[3] = tested on: Amaranthus palmeri (AMAPA); conditions: evaluated after 13 days; for pest or weed control at 1000 g/ha / Control of weed species AMAPA after post-emergence application (100=total damage to plant; 0=no damage to plant): application rate 1000 g/Ha
Procedure, shortened: as §1

[4] = tested on: Euphorbia heterophylla (EPHHL); conditions: evaluated after 13 days; for pest or weed control at 1000 g/ha / Control of weed species EPHHL after post-emergence application (100=total damage to plant; 0=no damage to plant): application rate 1000 g/Ha
Procedure, shortened: as §1

[5] = tested on: Ipomoea hederacea (IPOHE); conditions: evaluated after 13 days; for pest or weed control at 1000 g/ha / Control of weed species IPOHE after post-emergence application (100=total damage to plant; 0=no damage to plant): application rate 1000 g/Ha
Procedure, shortened: as §1

[6] = tested on: Echinochloa crus-galli (ECHCG); conditions: evaluated after 13 days; for pest or weed control at 1000 g/ha / Control of weed species ECHCG after post-emergence application (100=total damage to plant; 0=no damage to plant): application rate 1000 g/Ha
Procedure, shortened: as §1

[7] = Lolium perenne, post-emergence, 312 h, read-out: Control of weed species LOLPE after post-emergence application (100=total damage to plant; 0=no damage to plant)
[8] = Setaria faberi, post-emergence, 312 h, read-out: Control of weed species SETFA after post-emergence application (100=total damage to plant; 0=no damage to plant)
[9] = Chenopodium album, post-emergence, 312 h, read-out: Control of weed species CHEAL after post-emergence application (100=total damage to plant; 0=no damage to plant)
[10] = Eleusine indica, post-emergence, 312 h, read-out: Control of weed species ELEIN after post-emergence application (100=total damage to plant; 0=no damage to plant)
[11] = Digitaria sanguinalis, post-emergence, 312 h, read-out: Control of weed species DIGSA after post-emergence application (100=total damage to plant; 0=no damage to plant)
[12] = Amaranthus palmeri, post-emergence, 312 h, read-out: Control of weed species AMAPA after post-emergence application (100=total damage to plant; 0=no damage to plant)
[13] = Euphorbia heterophylla, post-emergence, 312 h, read-out: Control of weed species EPHHL after post-emergence application (100=total damage to plant; 0=no damage to plant)
[14] = Ipomoea hederacea, post-emergence, 312 h, read-out: Control of weed species IPOHE after post-emergence application (100=total damage to plant; 0=no damage to plant)
[15] = Echinochloa crus-galli, post-emergence, 312 h, read-out: Control of weed species ECHCG after post-emergence application (100=total damage to plant; 0=no damage to plant)

SMILES | pest or weed control at 1000 g/ha (Lolium perenne (LOLPE); [7]) | pest or weed control at 1000 g/ha (Setaria faberi (SETFA); [8]) | pest or weed control at 1000 g/ha [1, 9] | pest or weed control at 1000 g/ha (Eleusine indica (ELEIN); [10]) | pest or weed control at 1000 g/ha [2, 11] | pest or weed control at 1000 g/ha [3, 12] | pest or weed control at 1000 g/ha [4, 13] | pest or weed control at 1000 g/ha [5, 14] | pest or weed control at 1000 g/ha [6, 15] | further results
O=S(=O)([O-])CCCC[n+]1ccc2ccccc2n1 [Compound A25] | 50% | 30% | 60% | 60% | 20% | 50% | 30% | 50% | 0% | 
O=S(=O)([O-])CC[n+]1ccc2ccc(Cl)cc2n1 [Compound A94] | 40% | 50% | 90% | 90% | 50% | 100% | 100% | 40% | 40% | 
O=S(=O)(O)CC[n+]1ccc2cccc(I)c2n1 [Compound A42, 2-(8-iodocinnolin-2-ium-2-yl)ethanesulfonic acid 2,2,2-trifluoroacetate] | 10% | 50% | 50% | 80% | 40% | 90% | 50% | 70% | 20% | 
O=S(=O)([N-]CC[n+]1ccc2ccccc2n1)C(F)(F)F [Compound A19, 2-cinnolin-2-ium-2-ylethyl(trifluoromethylsulfonyl)azanide] | 0% | 10% | 10% | 0% | 10% | 10% | 20% | 30% | 10% | 
Cc1c[n+](CCO)nc2ccccc12 [Compound A118] | 10% | 10% | 10% | 20% | 20% | 10% | 20% | 10% | 10% | 
N[C@@H](CCC[n+]1ccc2ccccc2n1)C(=O)[O-].O=C(O)C(F)(F)F [Compound A18] |  |  |  |  |  |  |  |  |  | Control of weed species LOLPE after post-emergence application (100=total damage to plant; 0=no damage to plant) (Lolium perenne (LOLPE)): 30; Control of weed species SETFA after post-emergence application (100=total damage to plant; 0=no damage to plant) (Setaria faberi (SETFA)): 20; Control of weed species CHEAL after post-emergence application (100=total damage to plant; 0=no damage to plant) [1]: 100; Control of weed species ELEIN after post-emergence application (100=total damage to plant; 0=no damage to plant) (Eleusine indica (ELEIN)): 90; Control of weed species DIGSA after post-emergence application (100=total damage to plant; 0=no damage to plant) [2]: 40; Control of weed species AMAPA after post-emergence application (100=total damage to plant; 0=no damage to plant) [3]: 60; Control of weed species EPHHL after post-emergence application (100=total damage to plant; 0=no damage to plant) [4]: 20; Control of weed species IPOHE after post-emergence application (100=total damage to plant; 0=no damage to plant) [5]: 30; Control of weed species ECHCG after post-emergence application (100=total damage to plant; 0=no damage to plant) [6]: 30
C[C@@H](CNS(=O)(=O)[O-])[n+]1ccc2ccccc2n1 [Compound A50] |  |  |  |  |  |  |  |  |  | pest or weed control at 500 g/ha (Lolium perenne (LOLPE); Lolium perenne, post-emergence, 312 h, application rate 500 g/Ha, read-out: Control of weed species LOLPE after post-emergence application (100=total damage to plant; 0=no damage to plant)): 20%; pest or weed control at 500 g/ha (Setaria faberi (SETFA); Setaria faberi, post-emergence, 312 h, application rate 500 g/Ha, read-out: Control of weed species SETFA after post-emergence application (100=total damage to plant; 0=no damage to plant)): 20%; pest or weed control at 500 g/ha ([1]; Chenopodium album, post-emergence, 312 h, application rate 500 g/Ha, read-out: Control of weed species CHEAL after post-emergence application (100=total damage to plant; 0=no damage to plant)): 70%; pest or weed control at 500 g/ha (Eleusine indica (ELEIN); Eleusine indica, post-emergence, 312 h, application rate 500 g/Ha, read-out: Control of weed species ELEIN after post-emergence application (100=total damage to plant; 0=no damage to plant)): 20%; pest or weed control at 500 g/ha ([2]; Digitaria sanguinalis, post-emergence, 312 h, application rate 500 g/Ha, read-out: Control of weed species DIGSA after post-emergence application (100=total damage to plant; 0=no damage to plant)): 30%; pest or weed control at 500 g/ha ([3]; Amaranthus palmeri, post-emergence, 312 h, application rate 500 g/Ha, read-out: Control of weed species AMAPA after post-emergence application (100=total damage to plant; 0=no damage to plant)): 80%; pest or weed control at 500 g/ha ([4]; Euphorbia heterophylla, post-emergence, 312 h, application rate 500 g/Ha, read-out: Control of weed species EPHHL after post-emergence application (100=total damage to plant; 0=no damage to plant)): 60%; pest or weed control at 500 g/ha ([5]; Ipomoea hederacea, post-emergence, 312 h, application rate 500 g/Ha, read-out: Control of weed species IPOHE after post-emergence application (100=total damage to plant; 0=no damage to plant)): 40%; pest or weed control at 500 g/ha ([6]; Echinochloa crus-galli, post-emergence, 312 h, application rate 500 g/Ha, read-out: Control of weed species ECHCG after post-emergence application (100=total damage to plant; 0=no damage to plant)): 20%
COc1ccc2n[n+](CCS(=O)(=O)[O-])ccc2c1 [Compound A37] | 20% | 40% | 0% | 60% | 60% | 0% | 20% | 10% | 50% | 
O=S(=O)([O-])C[n+]1ccc2ccccc2n1 [Compound A48, cinnolin-2-ium-2-ylmethanesulfonate] | 70% | 70% | 80% | 90% | 60% | 100% | 100% | 100% | 40% | 
COc1c[n+](CCS(=O)(=O)[O-])nc2ccccc12 [Compound A38] | 10% | 10% | 40% | 10% | 20% | 20% | 30% | 30% | 30% | 
O=S(=O)(O)c1cccc(C[n+]2ccc3ccccc3n2)c1 [Compound A93, 3-(cinnolin-2-ium-2-ylmethyl)benzenesulfonic Acid] |  |  |  |  |  |  |  |  |  | Control of weed species LOLPE after post-emergence application (100=total damage to plant; 0=no damage to plant) (Lolium perenne (LOLPE)): 10; Control of weed species SETFA after post-emergence application (100=total damage to plant; 0=no damage to plant) (Setaria faberi (SETFA)): 20; Control of weed species CHEAL after post-emergence application (100=total damage to plant; 0=no damage to plant) [1]: 10; Control of weed species ELEIN after post-emergence application (100=total damage to plant; 0=no damage to plant) (Eleusine indica (ELEIN)): 10; Control of weed species DIGSA after post-emergence application (100=total damage to plant; 0=no damage to plant) [2]: 20; Control of weed species AMAPA after post-emergence application (100=total damage to plant; 0=no damage to plant) [3]: 10; Control of weed species EPHHL after post-emergence application (100=total damage to plant; 0=no damage to plant) [4]: 50; Control of weed species IPOHE after post-emergence application (100=total damage to plant; 0=no damage to plant) [5]: 40; Control of weed species ECHCG after post-emergence application (100=total damage to plant; 0=no damage to plant) [6]: 20
